Experimental data as given in ChEMBL document CHEMBL1201862, “PubChem BioAssay data set” (2004).
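Growth conditions: 96-well plates. Treatment: test compound, 48 hours, 5 concentrations. Analysis: linear interpolation between bracketing concentrations; unreached endpoints set to highest concentration. Here, GI50 denotes the concentration required for 50% inhibition of growth.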 The source made the active and inactive calls. No stated cut-off is given here; in the data, active = GI50 up to about 1.1 µM and inactive = higher.

Key:
Experiment in all cases: DTP human tumour cell line panel, 48 h
SN12C = system: SN12C
SK-MEL-28 = system: SK-MEL-28
NCI-H23 = system: NCI-H23
LOX IMVI = system: LOX IMVI
PC-3 = system: PC-3
COLO 205 = system: COLO 205
DU-145 = system: DU-145
CAKI-1 = system: CAKI-1
786-0 = system: 786-0
UACC-257 = system: UACC-257
RPMI-8226 = system: RPMI-8226
IGROV-1 = system: IGROV-1
CCRF-CEM = system: CCRF-CEM
MDA-MB-435 = system: MDA-MB-435
HOP-62 = system: HOP-62
EKVX = system: EKVX
HCC 2998 = system: HCC 2998
A498 = system: A498
UO-31 = system: UO-31

Row | Structure (SMILES) | GI50 (SN12C) | GI50 (SK-MEL-28) | GI50 (NCI-H23) | GI50 (LOX IMVI) | GI50 (PC-3) | GI50 (COLO 205) | GI50 (DU-145) | GI50 (CAKI-1) | GI50 (786-0) | GI50 (UACC-257) | GI50 (RPMI-8226) | GI50 (IGROV-1) | GI50 (CCRF-CEM) | GI50 (MDA-MB-435) | GI50 (HOP-62) | GI50 (EKVX) | GI50 (HCC 2998) | GI50 (A498) | GI50 (UO-31)
1 | Cc1cc(S(=O)(=O)Nc2nc3ccccc3c(=O)n2N)c(S)cc1Cl | 44.5 µM (inactive) | 67.9 µM (inactive) | 31.8 µM (inactive) | 37.2 µM (inactive) | 69.3 µM (inactive) | > 100 µM (inactive) | 43 µM (inactive) | 31.8 µM (inactive) | 21.3 µM (inactive) | 59.8 µM (inactive) | 34.7 µM (inactive) | 43.8 µM (inactive) | 62.5 µM (inactive) | 32.7 µM (inactive) | 14.8 µM (inactive) | 43.6 µM (inactive) | 49.3 µM (inactive) | – | –
2 | Cc1nc2c(o1)C(=O)c1ccccc1/C2=N/c1ccccn1 | 24.9 µM (inactive) | 18.8 µM (inactive) | 11.5 µM (inactive) | 19.1 µM (inactive) | 30.8 µM (inactive) | 35.6 µM (inactive) | – | 25.8 µM (inactive) | 25.6 µM (inactive) | 14 µM (inactive) | 17.4 µM (inactive) | 22.6 µM (inactive) | 18.5 µM (inactive) | 17.9 µM (inactive) | 18.4 µM (inactive) | 17.7 µM (inactive) | 21.9 µM (inactive) | 16.7 µM (inactive) | 22.6 µM (inactive)
3 | N#Cc1c(-c2ccccc2)c(C#N)c(=O)n(NS(=O)(=O)c2ccccc2)c1O | > 100 µM (inactive) | > 100 µM (inactive) | – | > 100 µM (inactive) | > 100 µM (inactive) | > 100 µM (inactive) | – | > 100 µM (inactive) | > 100 µM (inactive) | > 100 µM (inactive) | > 100 µM (inactive) | > 100 µM (inactive) | > 100 µM (inactive) | > 100 µM (inactive) | > 100 µM (inactive) | > 100 µM (inactive) | > 100 µM (inactive) | > 100 µM (inactive) | –
4 | Cc1cc(NS(=O)(=O)c2ccc(/N=N/c3c(O)c(C(=O)O)cc4ccccc34)cc2)nc(C)n1 | – | > 100 µM (inactive) | – | – | > 100 µM (inactive) | > 100 µM (inactive) | – | > 100 µM (inactive) | > 100 µM (inactive) | > 100 µM (inactive) | > 100 µM (inactive) | > 100 µM (inactive) | > 100 µM (inactive) | > 100 µM (inactive) | > 100 µM (inactive) | > 100 µM (inactive) | > 100 µM (inactive) | – | > 100 µM (inactive)
5 | O=C1C2=Cc3ccccc3CCN2c2ccccc21 | 18.8 µM (inactive) | > 49.9 µM (inactive) | > 59.6 µM (inactive) | 17.3 µM (inactive) | 35.2 µM (inactive) | > 41.7 µM (inactive) | > 75.3 µM (inactive) | 19.1 µM (inactive) | 19.6 µM (inactive) | 27.2 µM (inactive) | 13.5 µM (inactive) | 30.2 µM (inactive) | 13.6 µM (inactive) | 28.7 µM (inactive) | > 63.8 µM (inactive) | 29 µM (inactive) | 7.31 µM (inactive) | 16.3 µM (inactive) | 42.8 µM (inactive)
6 | COc1ccc2cc(NC(=O)N/N=C\c3ccc(Cl)cc3)ccc2c1 | > 100 µM (inactive) | > 100 µM (inactive) | > 100 µM (inactive) | > 100 µM (inactive) | > 100 µM (inactive) | > 100 µM (inactive) | > 100 µM (inactive) | > 100 µM (inactive) | 40 µM (inactive) | > 100 µM (inactive) | > 100 µM (inactive) | 88.7 µM (inactive) | > 100 µM (inactive) | 69.8 µM (inactive) | 27.5 µM (inactive) | > 100 µM (inactive) | > 100 µM (inactive) | – | > 100 µM (inactive)
7 | COc1c(C)c(C/C=C(\C)CCCCO)c(OC)c2ccccc12 | 23.4 µM (inactive) | – | 29.7 µM (inactive) | 18.8 µM (inactive) | 34.4 µM (inactive) | 38.2 µM (inactive) | 45.3 µM (inactive) | 17.9 µM (inactive) | 38 µM (inactive) | 33.8 µM (inactive) | > 100 µM (inactive) | 65.8 µM (inactive) | 28.8 µM (inactive) | 32.6 µM (inactive) | – | 61.5 µM (inactive) | 23.3 µM (inactive) | – | 30.1 µM (inactive)
8 | CC(=O)ON(OC(C)=O)c1ccc(C)cc1 | – | > 100 µM (inactive) | > 100 µM (inactive) | – | > 100 µM (inactive) | > 100 µM (inactive) | > 100 µM (inactive) | > 100 µM (inactive) | > 100 µM (inactive) | > 100 µM (inactive) | > 100 µM (inactive) | > 100 µM (inactive) | < 0.01 µM (active) | > 100 µM (inactive) | > 100 µM (inactive) | > 100 µM (inactive) | > 100 µM (inactive) | > 100 µM (inactive) | > 100 µM (inactive)
9 | COC(=O)/C(=N\N)C(C(=O)C(=O)Nc1cccc([N+](=O)[O-])c1)c1nc2ccc(C(=O)c3ccccc3)cc2nc1O (configuration not stated) | > 100 µM (inactive) | > 100 µM (inactive) | > 100 µM (inactive) | > 100 µM (inactive) | 84.5 µM (inactive) | > 100 µM (inactive) | > 100 µM (inactive) | > 100 µM (inactive) | > 100 µM (inactive) | > 100 µM (inactive) | – | > 100 µM (inactive) | 22.3 µM (inactive) | > 100 µM (inactive) | 73.1 µM (inactive) | > 100 µM (inactive) | > 100 µM (inactive) | – | 37.5 µM (inactive)
10 | O=C1c2ccccc2C2=Nc3ccncc3CN12 | > 100 µM (inactive) | > 100 µM (inactive) | > 100 µM (inactive) | – | > 100 µM (inactive) | > 100 µM (inactive) | > 100 µM (inactive) | > 100 µM (inactive) | > 100 µM (inactive) | > 100 µM (inactive) | > 100 µM (inactive) | > 100 µM (inactive) | > 100 µM (inactive) | – | > 100 µM (inactive) | 25.9 µM (inactive) | > 100 µM (inactive) | – | > 100 µM (inactive)
11 | c1ccc(C2=NN(c3ccccc3)C3(S2)SC(c2ccccc2)(c2ccccc2)c2ccccc23)cc1 (configuration not stated) | > 100 µM (inactive) | > 100 µM (inactive) | > 100 µM (inactive) | > 100 µM (inactive) | – | > 100 µM (inactive) | – | > 100 µM (inactive) | > 100 µM (inactive) | > 100 µM (inactive) | > 100 µM (inactive) | > 100 µM (inactive) | > 100 µM (inactive) | – | > 100 µM (inactive) | > 100 µM (inactive) | > 100 µM (inactive) | > 100 µM (inactive) | > 100 µM (inactive)
12 | CC(C)(CN1CCCCC1)C(/C=C/c1ccccc1)=N\NC(=O)N/N=C(/C=C/c1ccccc1)C(C)(C)CN1CCCCC1 | 1.89 µM (inactive) | 1.68 µM (inactive) | 2.08 µM (inactive) | 1.8 µM (inactive) | 1.97 µM (inactive) | 1.44 µM (inactive) | – | 2.27 µM (inactive) | 1.46 µM (inactive) | 1.71 µM (inactive) | 1.27 µM (inactive) | 2.51 µM (inactive) | 1.19 µM (inactive) | 1.51 µM (inactive) | 1.85 µM (inactive) | 6.84 µM (inactive) | 0.543 µM (active) | 1.5 µM (inactive) | 1.13 µM (inactive)
